Measured values: ChEMBL document CHEMBL1201862, “PubChem BioAssay data set” (2004)
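The compound was tested at five concentrations on cells cultured in 96-well plates, with a 48-hour exposure period. GI50 marks 50% less growth.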 Calls of active or inactive are those of the source. No stated cut-off is given here; in the data, active = GI50 up to about 1.1 µM and inactive = higher.

Key:
Test in all cases: NCI anticancer screen, dose series, 48 h
[1] = test system: 786-0
[2] = test system: A498
[3] = test system: A549
[4] = test system: ACHN
[5] = test system: BT-549
[6] = test system: CAKI-1
[7] = test system: CCRF-CEM
[8] = test system: COLO 205
[9] = test system: DU-145
[10] = test system: EKVX
[11] = test system: HCC 2998
[12] = test system: HCT-116
[13] = test system: HCT-15
[14] = test system: HL-60
[15] = test system: HOP-62
[16] = test system: HOP-92
[17] = test system: HT-29
[18] = test system: Hs-578T
[19] = test system: IGROV-1
[20] = test system: K562
[21] = test system: KM12
[22] = test system: LOX IMVI
[23] = test system: M14
[24] = test system: MCF7
[25] = test system: MDA-MB-231
[26] = test system: MDA-MB-435
[27] = test system: MDA-N
[28] = test system: MOLT-4
[29] = test system: Malme-3M
[30] = test system: NCI-H23
[31] = test system: NCI-H460
[32] = test system: NCI-H522
[33] = test system: NCI/ADR-RES
[34] = test system: OVCAR-3
[35] = test system: OVCAR-4
[36] = test system: OVCAR-5
[37] = test system: OVCAR-8
[38] = test system: PC-3
[39] = test system: RPMI-8226
[40] = test system: RXF 393
[41] = test system: SF-268
[42] = test system: SF-295
[43] = test system: SF-539
[44] = test system: SK-MEL-28
[45] = test system: SK-MEL-2
[46] = test system: SK-OV-3
[47] = test system: SN12C
[48] = test system: SNB-19
[49] = test system: SW-620
[50] = test system: T47D
[51] = test system: TK-10
[52] = test system: U-251
[53] = test system: UACC-257
[54] = test system: UACC-62
[55] = test system: UO-31

With O=C(c1ccc(Cl)cc1)N(C(=S)OCCOc1ccccc1)c1ccccc1 the GI50 [1] was 18.7 µM (inactive), the GI50 [2] was 14.9 µM (inactive) and the GI50 [3] was 16.3 µM (inactive). The GI50 [4] was 20.3 µM (inactive), the GI50 [5] was 20.2 µM (inactive) and the GI50 [6] was 17.4 µM (inactive). The GI50 [7] was 13.7 µM (inactive), the GI50 [8] was 19.9 µM (inactive) and the GI50 [9] was 17.3 µM (inactive). The GI50 [10] was 20.1 µM (inactive), the GI50 [11] was 19.5 µM (inactive) and the GI50 [12] was 16.2 µM (inactive). The GI50 [13] was 19.3 µM, the GI50 [14] was 18.6 µM (inactive) and the GI50 [15] was 23 µM (inactive). The GI50 [16] was 3.34 µM (inactive), the GI50 [17] was 17.6 µM (inactive) and the GI50 [18] was 46.9 µM (inactive). For the same molecule, the GI50 [19] was 16.9 µM (inactive), the GI50 [20] was 30.4 µM (inactive) and the GI50 [21] was 19.1 µM (inactive). For the same molecule, the GI50 [22] was 17.4 µM (inactive), the GI50 [23] was 16.1 µM (inactive) and the GI50 [24] was 16.1 µM (inactive). The GI50 [25] was 23.1 µM (inactive), the GI50 [26] was 17 µM (inactive) and the GI50 [27] was 16.6 µM (inactive). For the same molecule, the GI50 [28] was 22.4 µM (inactive), the GI50 [29] was 29 µM (inactive) and the GI50 [30] was 18.1 µM (inactive). The GI50 [31] was 23.2 µM (inactive), the GI50 [32] was 19.1 µM (inactive) and the GI50 [33] was 23.9 µM (inactive). For the same molecule, the GI50 [34] was 17.2 µM (inactive), the GI50 [35] was 18.6 µM (inactive) and the GI50 [36] was 17 µM (inactive). For the same molecule, the GI50 [37] was 20.3 µM (inactive), the GI50 [38] was 21.1 µM (inactive) and the GI50 [39] was 18.1 µM (inactive). For the same molecule, the GI50 [40] was 18.6 µM (inactive), the GI50 [41] was 25.1 µM (inactive) and the GI50 [42] was 27.6 µM (inactive). For the same molecule, the GI50 [43] was 18.9 µM (inactive), the GI50 [44] was 15.8 µM (inactive) and the GI50 [45] was 22.1 µM (inactive). The GI50 [46] was 36.1 µM (inactive), the GI50 [47] was 19.3 µM (inactive) and the GI50 [48] was 19.2 µM (inactive). The GI50 [49] was 19.1 µM (inactive), the GI50 [50] was 20 µM (inactive) and the GI50 [51] was 29.4 µM (inactive). The GI50 [52] was 16.2 µM (inactive), the GI50 [53] was 18.7 µM (inactive) and the GI50 [54] was 16.3 µM (inactive). The GI50 [55] was 0.186 µM (active).
